The IC50 is the point on the concentration scale where inhibition reaches its midpoint. The term LD50 denotes the dose expected to kill half of the subjects tested. What is called Ki is the dissociation constant of the complex between target and ligand, obtained from inhibition or displacement. High values mean lower affinity, low ones higher affinity.

Data on six compounds can be found in ChEMBL document CHEMBL3621133, “Macrocyclic derivatives of 6-methyluracil as ligands of the peripheral anionic site of acetylcholinesterase” (Medchemcomm, 2014).

In data set [1] the target is T1, Acetylcholinesterase (Homo sapiens, UniProt P22303). As to the kind of experiment: Inhibition of AChE from human erythrocytes.
T1 sequence (P22303 whole entry): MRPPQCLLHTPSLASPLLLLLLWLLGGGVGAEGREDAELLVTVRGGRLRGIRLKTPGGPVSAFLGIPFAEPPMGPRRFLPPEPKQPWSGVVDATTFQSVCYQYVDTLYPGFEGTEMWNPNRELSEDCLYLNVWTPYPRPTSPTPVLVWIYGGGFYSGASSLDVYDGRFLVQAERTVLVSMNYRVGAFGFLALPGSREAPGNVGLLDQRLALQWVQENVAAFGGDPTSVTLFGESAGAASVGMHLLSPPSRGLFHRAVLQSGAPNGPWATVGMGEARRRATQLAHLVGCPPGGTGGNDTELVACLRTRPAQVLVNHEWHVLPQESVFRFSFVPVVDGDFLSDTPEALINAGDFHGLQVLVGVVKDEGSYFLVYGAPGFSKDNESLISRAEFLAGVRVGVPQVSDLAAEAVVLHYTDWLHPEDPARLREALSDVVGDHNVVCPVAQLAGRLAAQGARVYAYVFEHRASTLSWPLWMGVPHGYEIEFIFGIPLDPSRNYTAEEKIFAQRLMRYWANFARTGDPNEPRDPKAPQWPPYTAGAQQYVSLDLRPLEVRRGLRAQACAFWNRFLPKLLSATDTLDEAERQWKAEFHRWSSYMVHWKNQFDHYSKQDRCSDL
For a further data set, the target named is Cholinesterase (Homo sapiens, UniProt P06276). As to the kind of experiment: Inhibition of BChE from human plasma.
Cholinesterase, sequence (P06276 whole entry): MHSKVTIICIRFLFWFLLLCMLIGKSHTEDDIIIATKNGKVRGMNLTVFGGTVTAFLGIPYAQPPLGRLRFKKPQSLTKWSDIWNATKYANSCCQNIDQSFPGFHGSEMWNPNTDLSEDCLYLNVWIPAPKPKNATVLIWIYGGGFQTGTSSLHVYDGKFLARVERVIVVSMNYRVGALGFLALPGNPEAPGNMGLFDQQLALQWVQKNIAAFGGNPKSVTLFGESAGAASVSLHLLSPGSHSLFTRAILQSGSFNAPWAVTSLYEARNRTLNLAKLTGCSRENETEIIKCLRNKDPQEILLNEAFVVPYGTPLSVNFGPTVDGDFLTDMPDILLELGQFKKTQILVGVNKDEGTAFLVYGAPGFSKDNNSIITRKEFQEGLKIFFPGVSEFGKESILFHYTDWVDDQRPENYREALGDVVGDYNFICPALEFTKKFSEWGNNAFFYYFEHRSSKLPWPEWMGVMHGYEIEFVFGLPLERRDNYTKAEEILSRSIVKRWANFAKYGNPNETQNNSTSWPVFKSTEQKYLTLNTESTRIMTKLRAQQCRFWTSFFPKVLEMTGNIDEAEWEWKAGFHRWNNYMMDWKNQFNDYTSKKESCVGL
Data set [2] relates to Rattus norvegicus. As to the kind of experiment: […] in muscle action potential decrement in rat experimental autoimmune model of myasthenia gravis at 0.004 mg/kg, ip (reference value: 67.3 +/- 2.7%). In kind it is functional.
The subject of data set [3] is Rattus norvegicus. As to the kind of experiment: […] in muscle action potential decrement in rat experimental autoimmune model of myasthenia gravis at 0.008 mg/kg, ip (reference value: 67.3 +/- 2.7%). In kind it is functional.
Data set [4] in a line: Toxicity in ip dosed rat. In kind it is organism-based. Particulars: in vivo.
For data set [5], the target named is T1, Acetylcholinesterase. The data set is described as follows: Reversible inhibition of AChE from human erythrocytes by Lineweaver-Burk plot.
Data set [6] concerns Rattus norvegicus. As to the kind of experiment: […] in muscle action potential decrement in rat experimental autoimmune model of myasthenia gravis at 0.1 mg/kg, ip (reference value: 67.3 +/- 2.7%). In kind it is functional.
Data set [7] relates to Rattus norvegicus. The data set is described as follows: […] in muscle action potential decrement in rat experimental autoimmune model of myasthenia gravis at 0.3 mg/kg, ip (reference value: 67.3 +/- 2.7%). In kind it is functional.

On to `CC[N+](CC)(CCCCCn1c(C)cc(=O)n(CCCCC[N+](CC)(CC)Cc2ccccc2[N+](=O)[O-])c1=O)Cc1ccccc1[N+](=O)[O-].[Br-].[Br-]`, for which the IC50 on Acetylcholinesterase [1] was 0.14 nM; on Cholinesterase, 10000 nM. In addition, the Activity in the data set on Rattus norvegicus [2] is recorded as 83.25%; with Rattus norvegicus [3] it was 95.41%. For the same compound, in data set [4], the LD50 was determined as 0.008 mg/kg. On Acetylcholinesterase [5], this compound came in with a Ki of 0.08 nM.

Take `CC[N+]1(Cc2ccccc2[N+](=O)[O-])CCCCCC[N+](CC)(Cc2ccccc2[N+](=O)[O-])CCCCCn2c(=O)cc(C)n(c2=O)CCCCC1` (stereo not given): the IC50 on Acetylcholinesterase [1] was 59 nM; against Cholinesterase, 9200 nM.

For `CC[N+]1(Cc2ccccc2[N+](=O)[O-])CCCCCn2c(C)cc(=O)n(c2=O)CCCCC[N+](CC)(Cc2ccccc2[N+](=O)[O-])Cc2ccc(cc2)C1.[Br-].[Br-]` (stereo not given), the IC50 came to 7 nM at Acetylcholinesterase [1] and 1200 nM at Cholinesterase. Besides, the values for the Activity in the data set with Rattus norvegicus [6] and in the data set with Rattus norvegicus [7] were 75% and 95.4%, respectively. In data set [4], this compound displayed an LD50 of 15.5 mg/kg. The affinity at Acetylcholinesterase [5], expressed as Ki, was 50.1 nM.

As to `CC[N+]1(Cc2ccccc2[N+](=O)[O-])CCCCCn2c(C)cc(=O)n(c2=O)CCCCC[N+](CC)(Cc2ccccc2[N+](=O)[O-])CCCCCn2c(=O)cc(C)n(c2=O)CCCCC1` (stereo not given), the IC50 worked out at 130 nM on Acetylcholinesterase [1] and 10000 nM on Cholinesterase.

Take `CC[N+]1(Cc2ccccc2[N+](=O)[O-])CCCCCn2c(C)c3c(=O)n(c2=O)CCCCC[N+](CC)(Cc2ccccc2[N+](=O)[O-])CCCCCn2c(C)c(c(=O)n(c2=O)CCCCC1)C3` (stereo not given): the IC50 was 4000 nM against Acetylcholinesterase [1] and 20000 nM at Cholinesterase.

In the case of `CN(C)C(=O)Oc1ccc[n+](C)c1.[Br-]` [PYRIDOSTIGMINE BROMIDE], the Activity in the data set on Rattus norvegicus [6] is given as 91.3%. Further, the LD50 in data set [4] stood at 2.7 mg/kg.
